Data from PubChem BioAssay AID248 (DTP/NCI, 2004).
Values joined by “and” are separate entries in the source; they are usually repeats but may differ in a detail not shown here. Equal entries are not always repeated. Inconclusive results and toxic doses are left out. No stated cut-off is given here; in the data, active means T/C of 150% or more; inactive means T/C below 125%.

System: L1210 leukemia ip in BDF1 mice, survival T/C
Experiment: NCI In Vivo Anticancer Drug Screen. Data for tumor model L1210 Leukemia (intraperitoneal) in B6D2F1 (BDF1) mice
Conditions: endpoint: mean survival time, higher = longer survival
In short: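 Tumor cells were implanted, animals were treated, and survival was followed. The result divides the treated measurement by the vehicle-control measurement.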

[1] = dose: 50.0 mg/kg/injection, schedule: Q01DX009 (ip), vehicle: saline
[2] = dose: 100.0 mg/kg/injection, schedule: Q01DX009 (ip), vehicle: saline
[3] = dose: 200.0 mg/kg/injection, schedule: Q01DX009 (ip), vehicle: saline
[4] = dose: 100.0 mg/kg/injection, schedule: Q01DX009 (ip), vehicle: Klucel (hydroxypropylcellulose) (HPC)
[5] = dose: 100.0 mg/kg/injection, schedule: Q04DX003 (ip), vehicle: Klucel (hydroxypropylcellulose) (HPC)
[6] = dose: 200.0 mg/kg/injection, schedule: Q01DX009 (ip), vehicle: Klucel (hydroxypropylcellulose) (HPC)
[7] = dose: 200.0 mg/kg/injection, schedule: Q04DX003 (ip), vehicle: Klucel (hydroxypropylcellulose) (HPC)
[8] = dose: 400.0 mg/kg/injection, schedule: Q01DX009 (ip), vehicle: Klucel (hydroxypropylcellulose) (HPC)
[9] = dose: 400.0 mg/kg/injection, schedule: Q04DX003 (ip), vehicle: Klucel (hydroxypropylcellulose) (HPC)
[10] = dose: 100.0 mg/kg/injection, schedule: Q04DX002 (ip), vehicle: Klucel (hydroxypropylcellulose) (HPC)
[11] = dose: 200.0 mg/kg/injection, schedule: Q04DX002 (ip), vehicle: Klucel (hydroxypropylcellulose) (HPC)
[12] = dose: 400.0 mg/kg/injection, schedule: Q04DX002 (ip), vehicle: Klucel (hydroxypropylcellulose) (HPC)
[13] = dose: 100.0 mg/kg/injection, schedule: Q04DX003 (ip), vehicle: saline
[14] = dose: 200.0 mg/kg/injection, schedule: Q04DX003 (ip), vehicle: saline
[15] = dose: 400.0 mg/kg/injection, schedule: Q01DX009 (ip), vehicle: saline
[16] = dose: 400.0 mg/kg/injection, schedule: Q04DX003 (ip), vehicle: saline
[17] = dose: 100.0 mg/kg/injection, schedule: Q01DX001 (ip), vehicle: saline
[18] = dose: 200.0 mg/kg/injection, schedule: Q01DX001 (ip), vehicle: saline
[19] = dose: 400.0 mg/kg/injection, schedule: Q01DX001 (ip), vehicle: saline

Measured: T/C

CN(C)CC/C=C1\c2ccccc2Sc2ccc(Cl)cc21
inactive: dose: 0.04 mg/kg/injection, schedule: Q03HX024 (ip), vehicle: saline 107 % of control | dose: 0.09 mg/kg/injection, schedule: Q03HX024 (ip), vehicle: saline 105 % of control | dose: 0.18 mg/kg/injection, schedule: Q03HX024 (ip), vehicle: saline 102 % of control | dose: 0.36 mg/kg/injection, schedule: Q01DX001 (ip), vehicle: Klucel (hydroxypropylcellulose) (HPC) 102 % of control | dose: 0.37 mg/kg/injection, schedule: Q03HX024 (ip), vehicle: saline 105 % of control | dose: 0.73 mg/kg/injection, schedule: Q01DX001 (ip), vehicle: Klucel (hydroxypropylcellulose) (HPC) 97 % of control | dose: 0.74 mg/kg/injection, schedule: Q03HX024 (ip), vehicle: saline 107 % of control | dose: 1.46 mg/kg/injection, schedule: Q01DX001 (ip), vehicle: Klucel (hydroxypropylcellulose) (HPC) 108 % of control | dose: 1.49 mg/kg/injection, schedule: Q03HX024 (ip), vehicle: Klucel (hydroxypropylcellulose) (HPC) 103 % of control | dose: 2.92 mg/kg/injection, schedule: Q01DX001 (ip), vehicle: Klucel (hydroxypropylcellulose) (HPC) 105 % of control | dose: 3.8 mg/kg/injection, schedule: Q01DX001 (ip), vehicle: Klucel (hydroxypropylcellulose) (HPC) 107 % of control | dose: 3.9 mg/kg/injection, schedule: Q01DX009 (ip), vehicle: Klucel (hydroxypropylcellulose) (HPC) 105 % of control | dose: 5.6 mg/kg/injection, schedule: Q01DX001 (ip), vehicle: saline 101 % of control | dose: 5.85 mg/kg/injection, schedule: Q01DX001 (ip), vehicle: Klucel (hydroxypropylcellulose) (HPC) 105 % of control | dose: 7.5 mg/kg/injection, schedule: Q01DX001 (ip), vehicle: Klucel (hydroxypropylcellulose) (HPC) 104 % of control | dose: 7.81 mg/kg/injection, schedule: Q01DX009 (ip), vehicle: Klucel (hydroxypropylcellulose) (HPC) 92 % of control | dose: 11.25 mg/kg/injection, schedule: Q01DX001 (ip), vehicle: saline 104 % of control | dose: 15.0 mg/kg/injection, schedule: Q01DX001 (ip), vehicle: Klucel (hydroxypropylcellulose) (HPC) 107 % of control | dose: 15.62 mg/kg/injection, schedule: Q01DX009 (ip), vehicle: Klucel (hydroxypropylcellulose) (HPC) 110 % of control | dose: 22.5 mg/kg/injection, schedule: Q01DX001 (ip), vehicle: saline 101 % of control | dose: 23.43 mg/kg/injection, schedule: Q01DX001 (ip), vehicle: Klucel (hydroxypropylcellulose) (HPC) 121 % of control | dose: 30.0 mg/kg/injection, schedule: Q01DX001 (ip), vehicle: Klucel (hydroxypropylcellulose) (HPC) 112 % of control | dose: 31.25 mg/kg/injection, schedule: Q01DX009 (ip), vehicle: Klucel (hydroxypropylcellulose) (HPC) 108 % of control | dose: 31.25 mg/kg/injection, schedule: Q04DX003 (ip), vehicle: Klucel (hydroxypropylcellulose) (HPC) 107 % of control

CCOCCC=O
inactive: [1] 97 % of control | [2] 91 % of control | [3] 91 % of control

CCOC(=O)C(C)Oc1ccc([N+](=O)[O-])cc1Cl (stereo not given)
inactive: dose: 100.0 mg/kg/injection, schedule: Q01DX009 (ip), vehicle: gum acacia 94 % of control | dose: 200.0 mg/kg/injection, schedule: Q01DX009 (ip), vehicle: gum acacia 99 % of control | dose: 400.0 mg/kg/injection, schedule: Q01DX009 (ip), vehicle: gum acacia 99 % of control

Nc1cccc2c1C(=O)c1cccc(NC(=O)c3ccccc3)c1C2=O
inactive: dose: 6.25 mg/kg/injection, schedule: Q01DX009 (ip), vehicle: Klucel (hydroxypropylcellulose) (HPC) 89 % of control | dose: 12.5 mg/kg/injection, schedule: Q01DX009 (ip), vehicle: Klucel (hydroxypropylcellulose) (HPC) 92 % of control | dose: 25.0 mg/kg/injection, schedule: Q01DX009 (ip), vehicle: Klucel (hydroxypropylcellulose) (HPC) 89 % of control | dose: 50.0 mg/kg/injection, schedule: Q01DX009 (ip), vehicle: Klucel (hydroxypropylcellulose) (HPC) 108 % of control | [4] 95 % of control | [5] 96 % of control | [6] 95 % of control | [7] 91 % of control | [8] 99 % of control | [9] 90 % of control

CC(=O)c1cccc(NC(=O)Oc2ccc(-c3ccccc3)cc2Cl)c1
inactive: [4] 98 % of control | [6] 97 % of control | [8] 106 % of control

CC(=O)OCC(CS(=O)c1c(Cl)c(Cl)c(Cl)c(Cl)c1Cl)OC(C)=O (stereo not given)
inactive: dose: 25.0 mg/kg/injection, schedule: Q04DX002 (ip), vehicle: Klucel (hydroxypropylcellulose) (HPC) 93 % of control | dose: 50.0 mg/kg/injection, schedule: Q04DX002 (ip), vehicle: Klucel (hydroxypropylcellulose) (HPC) 86 % of control | [10] 106 % of control and 89 % of control | [11] 97 % of control and 124 % of control | [12] 109 % of control

O=C(NCCO)Nc1ccccc1F
inactive: [2] 95 % of control | [13] 95 % of control | [3] 101 % of control | [14] 95 % of control | [15] 106 % of control | [16] 93 % of control

CC1CCC2(CC1=O)C(C)CC(=O)C2C(C)C (stereo not given)
inactive: [2] 94 % of control | [3] 102 % of control | [15] 98 % of control

COc1cc(N)c2c(c1O)CN(C)CC2
inactive: dose: 75.0 mg/kg/injection, schedule: Q01DX001 (ip), vehicle: saline 95 % of control | dose: 150.0 mg/kg/injection, schedule: Q01DX001 (ip), vehicle: saline 100 % of control | dose: 300.0 mg/kg/injection, schedule: Q01DX001 (ip), vehicle: saline 86 % of control

Clc1ccc(/C=N\Nc2c3ccccc3nc3ccccc23)cc1Cl
inactive: [17] 97 % of control | [18] 94 % of control | [19] 111 % of control

CC(C)(Cl)C(N)=O
inactive: [17] 101 % of control | [18] 103 % of control | [19] 97 % of control

CCCc1cc(CN2CCOCC2)c(O)c(CN2CCOCC2)c1O
inactive: [17] 91 % of control | [18] 93 % of control | [19] 95 % of control

COC(=O)Cc1c[nH]c(=O)[nH]c1=O
inactive: dose: 100.0 mg/kg/injection, schedule: Q01DX009 (ip), vehicle: water 102 % of control | dose: 100.0 mg/kg/injection, schedule: Q04DX003 (ip), vehicle: water 93 % of control | dose: 200.0 mg/kg/injection, schedule: Q01DX009 (ip), vehicle: water 98 % of control | dose: 200.0 mg/kg/injection, schedule: Q04DX003 (ip), vehicle: water 104 % of control | dose: 400.0 mg/kg/injection, schedule: Q04DX003 (ip), vehicle: water 95 % of control

O/N=C(/C(=N/O)c1ccccc1)c1ccccc1.O/N=C(/C(=N/O)c1ccccc1)c1ccccc1.[Cl][Rh][Cl]
inactive: [1] 94 % of control | dose: 50.0 mg/kg/injection, schedule: Q04DX003 (ip), vehicle: saline 95 % of control | [2] 89 % of control | [13] 95 % of control | [3] 95 % of control | [14] 94 % of control | [15] 97 % of control | [16] 94 % of control

Cc1ccc(N=Cc2cccc([N+](=O)[O-])c2)cc1
inactive: dose: 100.0 mg/kg/injection, schedule: Q01DX001 (ip), vehicle: Klucel (hydroxypropylcellulose) (HPC) 100 % of control | [5] 98 % of control | dose: 200.0 mg/kg/injection, schedule: Q01DX001 (ip), vehicle: Klucel (hydroxypropylcellulose) (HPC) 94 % of control | [7] 100 % of control | dose: 400.0 mg/kg/injection, schedule: Q01DX001 (ip), vehicle: Klucel (hydroxypropylcellulose) (HPC) 91 % of control | [9] 103 % of control

CC(=O)N(c1ccccn1)c1ccccn1
inactive: [17] 106 % of control | [13] 97 % of control | [18] 104 % of control | [14] 105 % of control

CCCCCCCCCCCCCCCCCCNC(=O)NCc1ccncc1
inactive: [10] 94 % of control | [11] 123 % of control | [12] 87 % of control
